Test: Topical application of NSAID with hyaluronic acid to patients: side effects and pain relief
Assay type: in vivo, human
Conditions: for relief of pain: patients using combination with hyaluronic acid (sodium hyaluronate)
Source text: (This may be in part because of the clearing of the hyaluronic acid through the lymphatic system from the site).

SMILES | relief of pain | major toxic side effects (gastro-intestinal distress, neurological abnormalities, depression) (dissolved in n-methyl glucamine, applied topically with hyaluronic acid, even at elevated amounts)
O=C(O)Cc1ccccc1Nc1c(Cl)cccc1Cl [diclofenac, Ortho-((2,6-dichlorophenyl)amino)phenylacetic acid] | dramatic relief of pain immediately | 
COc1ccc2c(c1)c(CC(=O)O)c(C)n2C(=O)c1ccc(Cl)cc1 [indomethacin] | dramatic relief of pain immediately | no major toxic side effects occur
